# Literature values, collected in US6874277B2, “Method and composition for promoting and controlling growth of plants” (priority 1988, dated 2005).
# Like-named read-outs stand apart in the source and are kept apart here.
# Tested on: tomato variety San Jose Extra Early
# Set-up: Dry wt increase: unit not given here
# Settings: duration 21 days
smiles,measurement,setting,value
"OC[C@H]1O[C@@](CO)(O[C@H]2O[C@H](CO)[C@@H](O)[C@H](O)[C@H]2O)[C@@H](O)[C@@H]1O [10% sucrose solution, sucrose]",Dry wt increase,1 spray,16
same,Mean total dry wt,"1 spray, 0 sprays 188",204 mg
same,Dry wt increase,2 sprays,41
same,Mean total dry wt,2 sprays,229 mg
same,Dry wt increase,3 sprays,50
same,Mean total dry wt,3 sprays,238 mg
same,Dry wt increase,5 sprays,93
same,Mean total dry wt,5 sprays,281 mg
same,Dry wt increase,10 sprays,163
same,Mean total dry wt,10 sprays,352 mg
same,Dry wt increase,20 sprays,408
same,Mean total dry wt,20 sprays,596 mg
